Entries after “also recorded” stand apart in the source; their conditions may differ. Like-named read-outs stand apart in the source and are kept apart here.
Tests used:
[1] = C11-BODIPY581/591 oxidation lipid peroxidation assay in liposomes; details: for quenching of lipid peroxidation (retention of C11-BODIPY581/591 fluorescence): 10 mM AAPH, phospholipid liposomes, phosphate buffer, 40° C.
Experimental: To overcome the problem of spectral overlap using cis-parinaric acid, a fluorescence assay for lipid peroxidation using a lipophilic probe belonging to the BODIPY class of fluorescent dyes was used. C11-BODIPY^581/591 (4,4-difluoro-5(4-phenyl-1,3-butadienyl)-4-bora-3a,4a-diaza-s-indacene-3-propionic acid) fluorescence shifts from red to green upon oxidation. C11-BODIPY^581/591 (Molecular Probes, Eugene, Oreg., USA) stock solution concentrations were determined by measuring the absorption of C11-BODIPY^581/591 at 582 nm using a molar extinction coefficient of 140,000 mol^−1 cm^−1(R. P. Haugland, (1999) Handbook of Fluorescent Probes and Research Chemicals, Molecular Probes, Inc., Eugene, Oreg.). The lipid peroxidation inducer 2,2′-Azobis (2-amidino-propane dihydrochloride) (AAPH) and the antioxidant compound α-tocopherol were obtained from Sigma (St. Louis, Mo., USA). Phospholipid bilayers were prepared from 1-stearoyl-2-oleoyl-phosphatidylcholine (SOPC) and 1,2-dilinoleoyl-phosphatidylcholine (DLPC) and were purchased from Avanti® polar lipids, INC (Alabaster, Ala., USA).
Phosphotidylcholine (PC) liposomes were prepared as described before (Guey-Shuang et al. (1982) Lipids. 17, 403-413). Briefly, DLPC (25 mg) and SOPC (25 mg) were dissolved in chloroform and the solvent was removed by nitrogen evaporation (˜2 hours to give a thin film of PC in a round bottom flask. The lipid film was hydrated with 50 mL of 10 mM Tris-HCl (pH 7.4), 100 mM KCl, shaken and sonicated for 15 seconds. The liposomes obtained were filtered several times through 0.2 μM membrane filter.
C11 BODIPY^581/591 was incorporated into liposomes and oxidized by peroxyl radicals derived from the decomposition of AAPH in presence and absence of the compounds. […] Liposomes were pre-incubated for 10 min with 200 nM C11 BODIPY^581/591 to allow their incorporation into the lipid phase of the liposomes. After the addition of AAPH (10 mM) the decay of red fluorescence was followed at λ exc=570 nm, λ em=600 nm. Relative fluorescence units were normalized to 100% intensity. Results obtained were verified by repeating experiments N=3 independent experiments.

[2] = system: CEM cells; assay: Trypan blue cell viability assay, DEM-treated cells; assay type: cell-based, human; details: for EC50: CEM cells, pre-treatment 2 h, diethylmaleate 3 h, trypan blue exclusion, read-out: EC50 (effective concentration that prevents 50% of cell death); for maintaining cell viability (trypan blue exclusion): overnight incubation, then 5 mM DEM, 3 h
Experimental: Cell viability determined by trypan blue exclusion assay: This technique was used to assess the cytoprotective effects of the invention compounds in cultured cells pharmacologically treated to induce cell death by GSH depletion. DEM was used to deplete cellular GSH and induce oxidative stress. The viability of DEM-treated CEM cells was determined by their ability to exclude the dye trypan blue. Viable cells exclude trypan blue; whereas, non-viable cells take up the dye and stain blue. Briefly, CEM cells were grown in RPMI 1640 medium (GIBCO, Grand island, N.Y., USA) supplemented with 10% fetal calf serum, 2 mM glutamine (HyClone, South Logan, Utah, USA), 1% penicillin-streptomycin mix (Cellgro, Manassan, Va., USA). Cells were seeded at a density of 1×10^6 cells/mL and treated with different concentrations of the invention compounds. Cells were incubated at 37° C. in a humidified atmosphere of 5% CO2 in air for three hours with 5 mM DEM. Cell viability was determined by staining cells with 0.4% trypan blue using a hemacytometer. At least 500 cells were counted for each experimental group. At the time of assay, >95% of DEM-treated cells were trypan blue positive; whereas, in non-DEM treated control cell cultures >95% cells were viable. Cell viability was expressed as the percentage of control. Data are expressed as means±S.E.M (n=3).

[3] = system: CEM leukemia cells; assay: Mitochondrial membrane potential (Δψm) assay, TMRM, FACS; assay type: cell-based, human; details: for preserving mitochondrial membrane potential Δψm: 1, 2.5 or 5 μM
Experimental: Measurement of Mitochondrial Membrane Potential (Δψm)(FACS). For the determination of Δψm, CEM leukemia cells were pre-treated with or without the test compounds. The cells were treated with 5 mM DEM for 120 minutes, collected by centrifugation at 300×g for 3 minutes and then washed twice with phosphate buffered saline. The cells were re-suspended in HSSB buffer and incubated at 37° C. in the dark for 15 minutes with 250 nM TMRM (a cationic dye which accumulates within mitochondria in accordance with the Δψm Nernst potential). Cells were collected by centrifugation at 300×g for 3 minutes and then washed twice with phosphate buffered saline. The samples were analyzed immediately by flow cytometry using 488 nm excitation laser and the FL2-H channel. The results obtained were verified in three independent experiments. The protonophore FCCP (30 μM) was used to dissipate the chemiosmotic proton gradient (ΔμH^+) and served as a control for loss of Δψm. In each analysis, 10,000 events were recorded.

[4] = system: Human CEM leukemia cells; assay: Live/Dead Viability/Cytotoxicity flow cytometry assay; assay type: cell-based; details: overnight incubation, then DEM 3 hours
Experimental: Cell viability and cytotoxicity were determined by simultaneous staining live and dead cells using a two-color fluorescence assay, the Live/Dead® Viability/Cytotoxicity Kit (Molecular Probes). This assay is used to measure two recognized parameters of cell viability, intracellular esterase activity and plasma integrity. The membrane-impermeant DNA dye ethidium homodimer-1 (EthD-1) was used to identify dead cells whose plasma membrane integrity was disrupted. The membrane-permeant dye calcein-AM was used to label live cells. It penetrates into the cells where it is metabolized by cytoplasmic esterases and becomes a fluorescent but membrane-impermeant probe which is retained in viable cells. Human CEM leukemia cells were incubated overnight in RPMI medium (control) and in the presence of test compound and then treated with DEM for 3 hours. Cells were stained with 0.2 μM calcein-AM and 0.4 μM EthD-1. After 15 minutes, flow cytometry analysis was carried out using excitation at 488 nm. The green-fluorescent (539 nm) FL1-H channel, live-cell population appears in the lower right quadrant and the red-fluorescent (585 nm) FL2-H channel dead-cell population appears in the upper left quadrant (FIG. 11). In each analysis, 10,000 events were recorded. Results obtained were verified in three independent experiments.

[5] = Stability of isolated free base on storage; assay type: physicochemical; details: orange oil
Experimental: To a solution of 2.2 mg (4.4 μmol) acetyl ester 35 in 1 mL CH2Cl2 was added 17.5 μL (17.5 μmol) of DIBAL-H at −78° C. The reaction mixture was stirred at same temperature for 2 h than 1 mL of aqueous saturated sodium potassium tartrate was added slowly. The reaction mixture was allowed to warm to room temperature slowly add stirred for 3 h then separated. The aqueous layer was extracted with two portions of 5 mL of ethyl acetate. The combined organic layer was washed with brine, dried (Na2SO4) and concentrated under diminished pressure to give the product C as orange oil. HPLC found retain time in 21.82 min.

[6] = pretreatment 0.5, 1 or 2.5 μM overnight, DEM

With Cc1nc(N(C)C)nc(CCCCCCCCCCO)c1O [Compound A, 2-N,N-dimethylamino-5-hydroxy-4-methyl-6-(10-hydroxydecyl)-pyrimidine] the “quenching of lipid peroxidation (retention of C11-BODIPY581/591 fluorescence)” value [1] was “more effective in preventing lipid peroxidation than idebenone and its reduced form (Idebenol); also recorded: much more effective than idebenone and its reduced form in preventing lipid peroxidation”, the “protection against lipid peroxidation” value ([1]; compound 15 μM, AAPH, liposomes) was “complete protection” and the EC50 [2] was 0.202 ± 0.023 µM. For the same compound, the EC50 ([2]; Homo sapiens, CCRF-CEM) was 0.203 ± 0.023 µM, the “maintaining cell viability (trypan blue exclusion)” value [2] was “quite effective in maintaining cell viability following DEM treatment; also recorded: superior to idebenone in maintaining the viability of DEM-treated cells” and the “maintaining mitochondrial membrane potential Δψm” value [3, 6] was “clearly more effective in maintaining mitochondrial membrane potential; also recorded: very favorable properties”.

In the case of Cc1nc2c(c(CC[C@](C)(O)CCC[C@H](C)CCC[C@H](C)CCCC(C)C)c1O)CCN2C [Compound C, 4-((3R,7R,11R)-3-hydroxy-3,7,11,15-tetramethylhexadecyl)-1,6-dimethyl-2,3-dihydro-1H-pyrrolo[2,3-b]pyridine-5-ol], the “quenching of lipid peroxidation (retention of C11-BODIPY581/591 fluorescence)” value [1] is reported as “prevent lipid peroxidation in a concentration-dependent fashion with scavenging activity much higher than α-tocopherol; also recorded: prevents lipid peroxidation in a concentration-dependent fashion with scavenging activity much greater than that of α-tocopherol and compound C redox core; also recorded: much more effective than α-tocopherol in quenching lipid peroxidation”, the “maintaining cell viability (trypan blue exclusion)” value [2] is reported as “both effective in maintaining cell viability following treatment with DEM, with compound C being somewhat more effective; also recorded: superiority of compound C” and the “preserving mitochondrial membrane potential Δψm” value ([3]; 4-hour pretreatment) is reported as “more effective than tocopherol in preserving mitochondrial membrane potential”. The “preserving mitochondrial membrane potential Δψm” value ([3]; 24-hour pretreatment) was “comparable to tocopherol”, the “maintaining mitochondrial membrane potential Δψm” value ([3]; FIG. 13, 4 or 24 hours pretreatment) was “superior to tocopherol in maintaining mitochondrial membrane potential” and the “maintaining cell viability (Live/Dead kit, flow cytometry)” value [4] was “both effective in maintaining cell viability following treatment with DEM, with compound C being somewhat more effective; also recorded: superiority of compound C”. For the same compound, the “stability of isolated compound” value [5] was “degenerated after one day”.

In the case of COC1=C(OC)C(=O)C(CCCCCCCCCCO)=C(C)C1=O [idebenone, reference compound], the EC50 ([2]; Homo sapiens, CCRF-CEM) is reported as 0.765 ± 0.036 µM and the “maintaining mitochondrial membrane potential Δψm” value [3, 6] is reported as “less effective in this regard”.

In the case of Cc1c(C)c2c(c(C)c1O)CC[C@@](C)(CCC[C@H](C)CCC[C@H](C)CCCC(C)C)O2 [α-tocopherol, reference compound], the “maintaining cell viability (trypan blue exclusion)” value [2] is reported as “effective in maintaining cell viability following treatment with DEM” and the “maintaining cell viability (Live/Dead kit, flow cytometry)” value [4] is reported as “effective in maintaining cell viability following treatment with DEM”.
